Test results taken from ChEMBL document CHEMBL5634117 (Eur J Med Chem, 2023).

What was measured:
K562 [1] = assay: Growth inhibition of human K562 cells assessed as reduction in cell viability measured after 48 hrs by SRB assay; format: functional
SR = assay: Growth inhibition of human SR cells assessed as reduction in cell viability measured after 48 hrs by SRB assay; format: functional
NCI-H226 = assay: Growth inhibition of human NCI-H226 cells assessed as reduction in cell viability measured after 48 hrs by SRB assay; format: functional
SF-268 = assay: Growth inhibition of human SF-268 cells assessed as reduction in cell viability measured after 48 hrs by SRB assay; format: functional
U-251 = assay: Growth inhibition of human U-251 cells assessed as reduction in cell viability measured after 48 hrs by SRB assay; format: functional
M14 = assay: Growth inhibition of human M14 cells assessed as reduction in cell viability measured after 48 hrs by SRB assay; format: functional
SK-MEL-5 = assay: Growth inhibition of human SK-MEL-5 cells assessed as reduction in cell viability measured after 48 hrs by SRB assay; format: functional
OVCAR-8 = assay: Growth inhibition of human OVCAR-8 cells assessed as reduction in cell viability measured after 48 hrs by SRB assay; format: functional
786-0 = assay: Growth inhibition of human 786-0 cells assessed as reduction in cell viability measured after 48 hrs by SRB assay; format: functional
CAKI-1 = assay: Growth inhibition of human CAKI-1 cells assessed as reduction in cell viability measured after 48 hrs by SRB assay; format: functional
SN12C = assay: Growth inhibition of human SN12C cells assessed as reduction in cell viability measured after 48 hrs by SRB assay; format: functional
PC-3 = assay: Growth inhibition of human PC-3 cells assessed as reduction in cell viability measured after 48 hrs by SRB assay; format: functional
DU-145 = assay: Growth inhibition of human DU-145 cells assessed as reduction in cell viability measured after 48 hrs by SRB assay; format: functional
MDA-MB-231 = assay: Growth inhibition of human MDA-MB-231 cells assessed as reduction in cell viability measured after 48 hrs by SRB assay; format: functional
MDA-MB-468 = assay: Growth inhibition of human MDA-MB-468 cells assessed as reduction in cell viability measured after 48 hrs by SRB assay; format: functional
[2] = molecular target: Mitogen-activated protein kinase 9 (Homo sapiens, UniProt P45984); assay: Inhibition of human JNK2 at 10 uM in presence of ATP relative to control
Chain of Mitogen-activated protein kinase 9 (P45984 whole entry, looked up): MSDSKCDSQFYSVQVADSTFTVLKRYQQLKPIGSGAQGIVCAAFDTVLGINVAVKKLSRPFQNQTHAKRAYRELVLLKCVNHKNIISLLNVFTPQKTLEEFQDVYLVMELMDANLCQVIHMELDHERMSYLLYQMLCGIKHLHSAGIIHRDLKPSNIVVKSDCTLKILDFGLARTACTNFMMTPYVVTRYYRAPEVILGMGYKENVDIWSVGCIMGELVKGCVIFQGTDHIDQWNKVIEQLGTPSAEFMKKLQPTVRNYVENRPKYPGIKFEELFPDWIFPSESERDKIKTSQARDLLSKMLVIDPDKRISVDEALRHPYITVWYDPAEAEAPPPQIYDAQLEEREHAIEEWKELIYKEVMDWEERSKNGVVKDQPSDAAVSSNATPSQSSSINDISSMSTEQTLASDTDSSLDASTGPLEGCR

[3] = molecular target: Mitogen-activated protein kinase 8 (Homo sapiens, UniProt P45983); assay: Inhibition of human JNK1 in presence of ATP
Chain of Mitogen-activated protein kinase 8 (P45983 whole entry): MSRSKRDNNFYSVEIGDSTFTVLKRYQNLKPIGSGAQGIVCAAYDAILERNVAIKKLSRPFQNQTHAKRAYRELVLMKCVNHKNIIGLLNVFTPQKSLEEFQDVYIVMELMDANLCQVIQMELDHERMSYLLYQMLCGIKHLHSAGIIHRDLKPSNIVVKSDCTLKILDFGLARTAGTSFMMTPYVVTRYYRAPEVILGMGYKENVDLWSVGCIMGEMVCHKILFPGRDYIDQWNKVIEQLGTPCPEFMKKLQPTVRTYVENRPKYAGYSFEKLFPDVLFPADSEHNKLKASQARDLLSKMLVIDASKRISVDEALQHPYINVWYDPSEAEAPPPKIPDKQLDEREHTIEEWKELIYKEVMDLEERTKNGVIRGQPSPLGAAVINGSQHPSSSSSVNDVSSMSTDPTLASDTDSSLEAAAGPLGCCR

K562 [4] = assay: Induction of cell cycle arrest in human K562 cells assessed as accumulation of cells at G2/M phase at 0.64 uM measured after 24 hrs by PI staining based flow cytometry analysis (reference value: 25.62%); format: functional
K562 [5] = assay: Induction of cell cycle arrest in human K562 cells assessed as accumulation of cells at G2/M phase at 2.56 uM measured after 24 hrs by PI staining based flow cytometry analysis (reference value: 25.62%); format: functional
K562 [6] = assay: Induction of cell cycle arrest in human K562 cells assessed as accumulation of cells at G0/G1 phase at 1.28 uM measured after 24 hrs by PI staining based flow cytometry analysis (reference value: 46.72%); format: functional
K562 [7] = assay: Induction of cell cycle arrest in human K562 cells assessed as accumulation of cells at G0/G1 phase at 2.56 uM measured after 24 hrs by PI staining based flow cytometry analysis (reference value: 46.72%); format: functional
K562 [8] = assay: Induction of cell cycle arrest in human K562 cells assessed as accumulation of cells at SubG1 phase at 2.56 uM measured after 24 hrs by PI staining based flow cytometry analysis (reference value: 2.21%); format: functional
K562 [9] = assay: Induction of apoptosis in human K562 cells assessed as early apoptotic cells at 2.56 uM incubated for 24 hrs by annexinV and propidium iodide staining based flow cytometry analysis (reference value: 1.17%); format: functional
K562 [10] = assay: Induction of apoptosis in human K562 cells assessed as late apoptotic cells at 1.28 uM incubated for 24 hrs by annexinV and propidium iodide staining based flow cytometry analysis (reference value: 0.82%); format: functional

Compound | GI50 (K562 [1]) [nM] | GI50 (SR) [nM] | GI50 (NCI-H226) [nM] | GI50 (SF-268) [nM] | GI50 (U-251) [nM] | GI50 (M14) [nM] | GI50 (SK-MEL-5) [nM] | GI50 (OVCAR-8) [nM] | GI50 (786-0) [nM] | GI50 (CAKI-1) [nM] | GI50 (SN12C) [nM] | GI50 (PC-3) [nM] | GI50 (DU-145) [nM] | GI50 (MDA-MB-231) [nM] | GI50 (MDA-MB-468) [nM] | inhibition [2] [%] | IC50 [3] [nM] | also measured
CC(C)(C)n1cc(-c2ccnc(NCCCNS(=O)(=O)c3cccc4ccccc34)c2)c(-c2cccc(O)c2)n1 | 1480 | 1400 | 1970 | 2770 | 1730 | 1680 | 1520 | 2380 | 2090 | 2490 | 1730 | 1850 | 2650 | 2320 | 2040 | 99.1 | 80.3 | –
CC(C)(C)n1cc(-c2ccnc(NCCCNS(=O)(=O)c3ccc(Cl)cc3)c2)c(-c2cccc(O)c2)n1 | 1280 | 1750 | 2110 | 2180 | 1620 | 1720 | 1440 | 2220 | 2030 | 2060 | 1650 | 1360 | 2750 | 1870 | 1800 | 98.9 | 43.8 | Activity (K562 [4]): 51.01%; Activity (K562 [5]): 94.29%; Activity (K562 [6]): 7.27%; Activity (K562 [7]): 0.17%; Activity (K562 [8]): 0.07%; Activity (K562 [9]): 2.14%; Activity (K562 [10]): 0.56%
